Entries after “also recorded” stand apart in the source; their conditions may differ.
Experiments:
[1] = system: severely burned (>40% total body surface area) children; experiment: Energy expenditure by metabolic cart (indirect calorimetry); format: in vivo, human
Protocol: Between midnight and 5 AM on the day of study, oxygen consumption (VO2), carbon dioxide production (VCO2), respiratory quotient (RQ) and resting energy expenditure (REE) were determined with a metabolic cart (Sensormedics Model 2900; Yorba Linda, Calif.) at 30° C. ambient room temperature during continuous feeding.

[2] = system: severely burned (>40% total body surface area) children; experiment: Serum glucose, potassium and hormone values; conditions: result in words
[3] = system: severely burned (>40% total body surface area) children; experiment: Lean body mass by dual image x-ray absorptiometry (DEXA); format: in vivo, human
Protocol: (§1) Two weeks after treatment was started, a second series of metabolic and protein kinetic studies was performed. Subjects who received at least a four-week treatment course underwent a second whole-body potassium measurement. At discharge, subjects underwent body composition scanning by a dual image x-ray absorptiometry.
Total body lean mass and fat mass were measured by dual image x-ray absorptometry. A Hologic model QDR-4500W DEXA (Hologic Inc, Waltham, Mass.) with the pediatric software package was used to measure body composition.

[4] = system: severely burned (>40% total body surface area) children; experiment: Clinical safety: sepsis, held doses, complications during hospitalization; format: in vivo, human
[5] = system: severely burned (>40% total body surface area) children; experiment: Vital signs (hourly heart rate, blood pressure, temperature)
[6] = system: severely burned (>40% total body surface area) children; experiment: Fat-free mass by whole body potassium 40 counting; format: in vivo, human
Protocol: as §1
Determination of Fat-Free Mass using Potassium 40 Whole Body Counting. Fat-Free Mass was determined by Whole Body Potassium 40 (^40K) scintillation counting in a heavily shielded low background noise counting room, a 32 NaI detector array, and computed data analysis which has been validated for use in children.^20,21 The counting precision of the instrument used is <1.5%, which was calibrated daily using BOMAB Phantoms with simulated fat overlays. All studies were done after feedings and IV fluids were discontinued to minimize exogenous potassium contamination.

[7] = system: severely burned (>40% total body surface area) children; experiment: Stable isotope cross-leg skeletal muscle protein kinetic study
[8] = between metabolic studies, result in words
[9] = result in words, listed as propranolol
[10] = two weeks of oral propranolol, mean ± SEM
[11] = after treatment, n = 11, model derived, mean, listed as heads read shifted one entry

Compound: CC(C)NCC(O)COc1cccc2ccccc12 (stereo not drawn) [Propranolol, propranolol]
- Carbon dioxide production vs non-treated group [1, 8]: significant decreases
- Oxygen consumption vs non-treated group [1, 8]: significant decreases
- Respiratory quotient [1, 8]: did not change
- Resting energy expenditure vs baseline / non-treated group [1, 9]: lower than baseline and lower than those of the control group; also recorded: significant decreases
- Carbon dioxide production, change from baseline [1, 10]: −64 ± 22
- Oxygen consumption, change from baseline [1, 10]: −56 ± 22
- Respiratory quotient, change from baseline [1, 10]: −0.1 ± 0.1
- Resting energy expenditure, change from baseline [1, 10]: −422 ± 197
- Serum potassium values vs non-treated group [2]: higher
- Improvement of lean body mass percentage vs non-treated control group ([3]; at discharge, p=0.01): ~6%
- Lean body mass percentage ([3]; at full healing and discharge, 9 treated subjects): 79.1±1.2%
- Subjects who developed sepsis ([4]; during hospitalization, p=1.0 vs controls): 4 of 13
- Subjects in whom one or more doses were held temporarily for a mean arterial pressure between 60 and 65 ([4]; during treatment course): 3 of 13
- Asthma ([4]; result in words): No asthma occurred
- Evidence of tissue hypoperfusion (wound conversion to full thickness, metabolic acidosis) ([4]; result in words): No other direct or indirect evidence of tissue hypoperfusion
- Negative clinical sequela resulting from β-blockade ([4]; result in words): No negative clinical sequela
- Heart rates vs baseline and control group ([5]; during beta blockade, p<0.05, result in words): lower than baseline and lower than those of the control group
- Decrease in heart rate compared with patient's own baseline and with non-treated controls ([5]; oral propranolol titrated, p=0.03): 20%
- Blood pressure vs non-treated group / with treatment [5, 9]: not statistically different; also recorded: no significant decrease
- Diastolic blood pressure, change from baseline [5, 10]: −5 ± 5 mm/mHg
- Mean arterial pressure, change from baseline [5, 10]: 1 ± 8 mHg
- Systolic blood pressure, change from baseline [5, 10]: −4 ± 5 mHg
- Loss of fat free mass ([6]; 4 weeks of treatment, twelve propranolol subjects, p=0.003 vs controls): 1%
- Fat free mass by whole body potassium counter ([6]; four weeks of treatment, result in words): did not change; also recorded: preserved
- FSR, fractional synthetic rate, rate of incorporation of tracer into muscle over time ([7]; after treatment, n = 11, mean): 0.34 %/hr
- FM,A, inward transport into myocyte [7, 11]: 0.264 μmol Phe/min/100 ml leg
- FM,O, muscle protein breakdown [7, 11]: 0.287 μmol Phe/min/100 ml leg
- FO,M, muscle protein synthesis [7, 11]: 0.337 μmol Phe/min/100 ml leg
- FV,A, A→V shunt past muscle [7, 11]: 0.821 μmol Phe/min/100 ml leg
- FV,M, outward transport from myocyte [7, 11]: 0.214 μmol Phe/min/100 ml leg
- Fin, amino acid inflow into leg via femoral artery [7, 11]: 1.085 μmol Phe/min/100 ml leg
- Fout, amino acid outflow from leg via femoral vein [7, 11]: 1.034 μmol Phe/min/100 ml leg
- Rd, rate of disappearance, approximating protein synthesis [7, 11]: 0.157 μmol Phe/min/100 ml leg
- Protein synthesis measured by direct incorporation of the tracer ([7]; long-term β-blockade, result in words): increased
- Muscle protein net balance from baseline and vs non-treated controls ([7]; result in words): improved
- Muscle protein net balance from baseline and vs non-treated controls [7, 9]: achieved anabolic levels
